Consider one compound from patent publication US10342760B2, “Lipid nanoparticles for transfection and related methods” (The University of British Columbia, priority 2013, dated 2019).

The nature of this series: Apparent pKa of ionizable cationic lipid. It counts as physicochemical.

As for `CCCCCCCCC1CC1CCCCCCCCC(CCCCCCCCC1CC1CCCCCCCC)OC(=O)CCCN(C)C` (stereo not shown) [Cationic Lipid A, 1,17-bis(2-octylcyclopropyl)heptadecan-9-yl-4-(dimethylamino)butanoate], the pKa worked out at 6.3.

Broadly, the pKa is the pH at which an ionisable group is half protonated.
